Source: doi:10.1101/2025.11.20.689572v1 (biorxiv, 2025)

Tests used:
CHRM3 = CHRM3 (Homo sapiens, UniProt P20309); assay: cell-based; design: species or system HEK293; TRUPATH BRET2 G-protein dissociation; antagonist mode against agonist EC80; conditions: Xanomeline, Assay=Gq; agonist mode
5-HT1E = molecular target: T1, 5-HT1E (Homo sapiens, UniProt P28566); assay: biochemical; design: species or system HEK293; PDSP competitive radioligand binding, membranes of transfected HEK293 cells, filtration, Ki by Cheng-Prusoff
T1 construct: gene HTR1E

5-HT6 = molecular target: T2, 5-HT6 (Homo sapiens, UniProt P50406); assay: biochemical; design: species or system HEK293; PDSP competitive radioligand binding, membranes of transfected HEK293 cells, filtration, Ki by Cheng-Prusoff
T2 construct: gene HTR6

HRH4 [1] = molecular target: T3, HRH4 (Homo sapiens, UniProt Q9H3N8); assay: biochemical; design: species or system HEK293; PDSP competitive radioligand binding, membranes of transfected HEK293 cells, filtration, Ki by Cheng-Prusoff
β3 = molecular target: T4, β3 (Homo sapiens, UniProt P13945); assay: biochemical; design: species or system HEK293; PDSP competitive radioligand binding, membranes of transfected HEK293 cells, filtration, Ki by Cheng-Prusoff
T4 construct: gene ADRB3

HRH4 [2] = molecular target: T3, HRH4; assay: cell-based; design: species or system HEK293; TRUPATH BRET2 G-protein dissociation; antagonist mode against agonist EC80; conditions: N-Desmethyl Xanomeline, agonist mode
HTR1D = HTR1D (Homo sapiens, UniProt P28221); assay: cell-based; design: species or system HEK293; TRUPATH BRET2 G-protein dissociation; antagonist mode against agonist EC80; conditions: N-Desmethyl Xanomeline, agonist mode
HTR2C = molecular target: T5, HTR2C (Homo sapiens, UniProt P28335); assay: cell-based; design: species or system HEK293; TRUPATH BRET2 G-protein dissociation; antagonist mode against agonist EC80; conditions: Assay=Gq; agonist mode
T5 sequence (P28335 1-458): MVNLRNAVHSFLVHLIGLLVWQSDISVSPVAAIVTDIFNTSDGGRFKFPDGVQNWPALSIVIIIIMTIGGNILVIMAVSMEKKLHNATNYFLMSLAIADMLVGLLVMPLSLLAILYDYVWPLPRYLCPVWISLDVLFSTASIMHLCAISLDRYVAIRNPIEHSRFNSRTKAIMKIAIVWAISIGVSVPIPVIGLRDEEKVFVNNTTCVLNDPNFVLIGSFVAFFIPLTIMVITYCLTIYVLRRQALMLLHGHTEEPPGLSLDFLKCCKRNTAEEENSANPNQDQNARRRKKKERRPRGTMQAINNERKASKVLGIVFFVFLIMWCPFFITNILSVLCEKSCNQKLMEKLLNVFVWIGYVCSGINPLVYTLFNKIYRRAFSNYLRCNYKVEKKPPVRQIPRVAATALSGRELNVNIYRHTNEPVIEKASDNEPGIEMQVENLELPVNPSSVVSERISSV

HTR2A = HTR2A (Homo sapiens, UniProt P28223); assay: cell-based; design: Fluo-4 Direct calcium mobilization on FLIPR-Tetra; conditions: HEK293, read-out: N-Desmethyl Xanomeline; Assay=Calcium; agonist mode, % of control agonist
5-HT4 = molecular target: T6, 5-HT4 (Homo sapiens, UniProt Q13639); assay: biochemical; design: species or system HEK293; PDSP competitive radioligand binding, membranes of transfected HEK293 cells, filtration, Ki by Cheng-Prusoff; conditions: read-out: N-desmethyl-xanomeline (PDSP) pKi (converted)
T6 construct: gene HTR4

DRD1 = DRD1 (Homo sapiens, UniProt P21728); assay: biochemical; design: species or system HEK293; PDSP competitive radioligand binding, membranes of transfected HEK293 cells, filtration, Ki by Cheng-Prusoff; conditions: read-out: N-desmethyl-xanomeline (PDSP) pKi (converted)
β2 = β2 (Homo sapiens, UniProt P07550); assay: competitive radioligand binding, HEK293 membranes; design: gene ADRB2; full-length receptor; HEK293 cell membranes
Excerpt: competitive radioligand binding, HEK293 membranes on β2

T3 sequence (Q9H3N8 whole entry): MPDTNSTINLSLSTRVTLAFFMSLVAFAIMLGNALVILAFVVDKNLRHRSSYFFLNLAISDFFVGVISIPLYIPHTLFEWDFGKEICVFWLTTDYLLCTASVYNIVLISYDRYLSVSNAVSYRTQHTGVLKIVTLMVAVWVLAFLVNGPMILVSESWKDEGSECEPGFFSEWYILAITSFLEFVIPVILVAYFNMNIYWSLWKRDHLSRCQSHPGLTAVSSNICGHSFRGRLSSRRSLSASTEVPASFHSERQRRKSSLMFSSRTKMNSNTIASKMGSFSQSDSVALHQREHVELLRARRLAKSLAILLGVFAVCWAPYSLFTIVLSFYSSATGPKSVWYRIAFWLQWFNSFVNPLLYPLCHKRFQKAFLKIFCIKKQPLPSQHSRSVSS
HTR1D, sequence (P28221 whole entry): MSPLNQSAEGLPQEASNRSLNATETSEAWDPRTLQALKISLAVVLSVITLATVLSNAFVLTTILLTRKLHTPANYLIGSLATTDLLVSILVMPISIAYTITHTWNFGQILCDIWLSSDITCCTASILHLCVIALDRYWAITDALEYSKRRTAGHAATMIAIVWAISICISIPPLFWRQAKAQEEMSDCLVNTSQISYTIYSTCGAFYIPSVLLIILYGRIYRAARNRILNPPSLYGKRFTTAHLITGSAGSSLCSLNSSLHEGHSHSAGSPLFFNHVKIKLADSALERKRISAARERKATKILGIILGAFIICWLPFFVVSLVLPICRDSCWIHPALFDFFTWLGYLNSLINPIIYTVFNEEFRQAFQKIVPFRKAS
T4 sequence (P13945 whole entry): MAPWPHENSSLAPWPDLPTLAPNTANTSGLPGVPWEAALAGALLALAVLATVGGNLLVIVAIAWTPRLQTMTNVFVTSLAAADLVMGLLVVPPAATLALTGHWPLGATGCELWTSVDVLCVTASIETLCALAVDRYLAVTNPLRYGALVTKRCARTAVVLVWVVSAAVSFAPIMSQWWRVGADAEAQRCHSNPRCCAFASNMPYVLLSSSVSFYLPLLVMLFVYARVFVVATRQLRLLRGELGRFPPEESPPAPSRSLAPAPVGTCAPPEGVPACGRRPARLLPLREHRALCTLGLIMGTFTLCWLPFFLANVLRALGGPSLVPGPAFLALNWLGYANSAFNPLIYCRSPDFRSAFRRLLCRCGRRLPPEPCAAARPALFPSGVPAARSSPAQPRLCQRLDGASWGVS
CHRM3, sequence (P20309 whole entry): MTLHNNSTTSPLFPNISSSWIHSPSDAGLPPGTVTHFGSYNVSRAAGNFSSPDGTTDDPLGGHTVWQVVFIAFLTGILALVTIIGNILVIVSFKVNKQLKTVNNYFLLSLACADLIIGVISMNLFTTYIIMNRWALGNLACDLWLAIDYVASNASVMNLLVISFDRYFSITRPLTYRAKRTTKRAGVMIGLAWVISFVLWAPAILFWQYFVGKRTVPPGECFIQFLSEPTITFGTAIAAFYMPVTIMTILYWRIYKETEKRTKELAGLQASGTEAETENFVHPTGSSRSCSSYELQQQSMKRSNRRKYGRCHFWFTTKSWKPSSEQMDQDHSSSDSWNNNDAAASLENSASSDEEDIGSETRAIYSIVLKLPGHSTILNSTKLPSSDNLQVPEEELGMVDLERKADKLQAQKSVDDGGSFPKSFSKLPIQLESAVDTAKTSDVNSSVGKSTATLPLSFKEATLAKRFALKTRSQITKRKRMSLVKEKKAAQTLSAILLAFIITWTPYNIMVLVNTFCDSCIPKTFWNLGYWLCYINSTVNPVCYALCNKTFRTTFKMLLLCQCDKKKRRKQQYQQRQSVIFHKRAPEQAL
β2, sequence (P07550 whole entry): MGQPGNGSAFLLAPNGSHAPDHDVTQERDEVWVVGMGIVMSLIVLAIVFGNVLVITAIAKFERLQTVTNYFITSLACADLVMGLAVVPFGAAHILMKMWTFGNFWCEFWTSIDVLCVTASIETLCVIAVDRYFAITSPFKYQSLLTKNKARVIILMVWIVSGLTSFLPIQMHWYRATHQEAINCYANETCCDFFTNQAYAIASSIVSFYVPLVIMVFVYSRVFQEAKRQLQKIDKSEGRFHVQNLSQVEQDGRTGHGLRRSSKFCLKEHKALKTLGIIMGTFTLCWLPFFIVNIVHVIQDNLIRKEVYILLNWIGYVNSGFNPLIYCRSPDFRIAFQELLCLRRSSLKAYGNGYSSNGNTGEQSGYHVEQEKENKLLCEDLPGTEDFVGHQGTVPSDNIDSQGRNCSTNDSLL
T1 sequence (P28566 whole entry): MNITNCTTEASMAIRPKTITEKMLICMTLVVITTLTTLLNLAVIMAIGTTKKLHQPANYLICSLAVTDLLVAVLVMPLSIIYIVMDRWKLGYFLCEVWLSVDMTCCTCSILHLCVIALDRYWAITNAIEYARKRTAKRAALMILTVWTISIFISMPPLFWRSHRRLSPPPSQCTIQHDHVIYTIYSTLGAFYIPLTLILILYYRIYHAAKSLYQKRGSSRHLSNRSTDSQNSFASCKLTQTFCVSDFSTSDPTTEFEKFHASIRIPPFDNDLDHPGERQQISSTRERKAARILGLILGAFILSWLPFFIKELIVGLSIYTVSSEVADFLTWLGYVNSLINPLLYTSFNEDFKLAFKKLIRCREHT
DRD1, sequence (P21728 whole entry): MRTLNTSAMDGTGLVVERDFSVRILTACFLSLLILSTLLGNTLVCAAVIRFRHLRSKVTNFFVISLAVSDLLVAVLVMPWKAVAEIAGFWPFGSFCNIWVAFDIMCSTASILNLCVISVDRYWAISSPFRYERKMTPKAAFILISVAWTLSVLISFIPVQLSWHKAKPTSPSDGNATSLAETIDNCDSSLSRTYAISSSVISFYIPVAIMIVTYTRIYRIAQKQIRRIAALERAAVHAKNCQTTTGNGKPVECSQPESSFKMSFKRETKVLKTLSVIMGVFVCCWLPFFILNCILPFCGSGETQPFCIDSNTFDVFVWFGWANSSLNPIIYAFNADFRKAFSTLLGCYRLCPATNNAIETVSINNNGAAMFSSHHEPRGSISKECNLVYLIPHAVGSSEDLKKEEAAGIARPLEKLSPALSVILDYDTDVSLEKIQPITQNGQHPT
T6 sequence (Q13639 whole entry): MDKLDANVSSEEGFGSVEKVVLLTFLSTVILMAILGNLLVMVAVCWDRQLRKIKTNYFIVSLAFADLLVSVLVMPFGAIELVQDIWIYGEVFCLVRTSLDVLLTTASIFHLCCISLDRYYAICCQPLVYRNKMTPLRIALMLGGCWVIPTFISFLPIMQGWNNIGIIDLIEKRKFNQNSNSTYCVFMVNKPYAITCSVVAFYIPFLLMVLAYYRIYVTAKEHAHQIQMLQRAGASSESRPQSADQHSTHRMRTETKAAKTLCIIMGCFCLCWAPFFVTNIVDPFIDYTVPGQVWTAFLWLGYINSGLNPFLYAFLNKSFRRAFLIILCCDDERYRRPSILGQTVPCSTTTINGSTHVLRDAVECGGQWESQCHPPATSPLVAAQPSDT
HTR2A, sequence (P28223 whole entry): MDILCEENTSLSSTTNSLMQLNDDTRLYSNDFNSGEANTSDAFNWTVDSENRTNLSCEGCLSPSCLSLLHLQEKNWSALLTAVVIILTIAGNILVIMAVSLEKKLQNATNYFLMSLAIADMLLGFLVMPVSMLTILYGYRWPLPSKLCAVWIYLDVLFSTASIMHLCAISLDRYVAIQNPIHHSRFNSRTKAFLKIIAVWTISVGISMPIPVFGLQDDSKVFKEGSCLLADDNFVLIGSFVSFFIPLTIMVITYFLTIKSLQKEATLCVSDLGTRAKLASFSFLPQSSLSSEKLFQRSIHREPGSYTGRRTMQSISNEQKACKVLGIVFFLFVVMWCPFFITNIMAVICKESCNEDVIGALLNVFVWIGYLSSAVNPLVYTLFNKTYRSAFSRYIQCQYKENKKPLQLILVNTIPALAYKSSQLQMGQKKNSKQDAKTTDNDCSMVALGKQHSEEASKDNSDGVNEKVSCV
T2 sequence (P50406 whole entry): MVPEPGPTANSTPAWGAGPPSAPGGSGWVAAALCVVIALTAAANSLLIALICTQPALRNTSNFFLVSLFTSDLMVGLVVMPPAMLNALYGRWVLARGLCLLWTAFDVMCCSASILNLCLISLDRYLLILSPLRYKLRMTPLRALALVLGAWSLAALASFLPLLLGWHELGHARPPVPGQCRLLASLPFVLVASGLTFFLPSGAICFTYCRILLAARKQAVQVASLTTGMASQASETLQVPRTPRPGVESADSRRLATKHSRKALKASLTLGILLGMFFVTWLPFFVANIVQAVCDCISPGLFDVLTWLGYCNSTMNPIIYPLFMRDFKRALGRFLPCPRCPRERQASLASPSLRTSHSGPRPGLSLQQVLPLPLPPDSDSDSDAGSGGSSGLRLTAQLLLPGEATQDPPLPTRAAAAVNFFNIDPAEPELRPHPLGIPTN

For `CCCCCCOc1nsnc1C1=CCCN(C)C1` [Xanomeline], the EC50 (CHRM3) was 53.4 nM, the Ki (5-HT1E) was > 10000 nM and the Ki (5-HT6) was 3980 nM. For the same compound, the Ki (HRH4 [1]) was > 10000 nM and the Ki (β3) was > 10000 nM.

`CCCCCCOc1nsnc1C1=CCCNC1` [N-desmethylxanomeline] showed an EC50 (HRH4 [2]; Assay=Gi1) of 4870 nM, an EC50 (HRH4 [2]; Assay=Gi2) of 1390 nM and an EC50 (HRH4 [2]; Assay=Gi3) of 6360 nM. For the same compound, the EC50 (HRH4 [2]; Assay=GoA) was 6250 nM, the EC50 (HTR1D; Assay=Gi2) was 36.2 nM and the EC50 (HTR1D; Assay=GoA) was 63.1 nM. The EC50 (HTR1D; Assay=GoB) was 25.8 nM, the EC50 (HTR1D; Assay=Gz) was 146 nM and the EC50 (HTR2C) was 1940 nM. The Emax (HTR2A) was 63.4%, the Ki (5-HT4) was 3720 nM and the Ki (DRD1) was 2340 nM. For the same compound, the Ki (β2) was 832 nM.
